Experimental data taken from ChEMBL document CHEMBL2440076, “New triarylpyrazoles as broad-spectrum anticancer agents: design, synthesis, and biological evaluation” (Eur J Med Chem, 2013).

Legend:
COLO 205 = assay: Growth inhibition of human COLO205 cells assessed as cell growth at 10 uM after 48 hrs by sulforhodamine B assay; format: functional; conditions: COLO 205, 48 h, read-out: Activity
M14 = assay: Growth inhibition of human M14 cells after 48 hrs by sulforhodamine B assay; format: functional; conditions: M14, 48 h
T47D = assay: Growth inhibition of human T47D cells assessed as cell growth at 10 uM after 48 hrs by sulforhodamine B assay; format: functional; conditions: read-out: Activity
CAKI-1 = assay: Growth inhibition of human CAKI-1 cells after 48 hrs by sulforhodamine B assay; format: functional; conditions: CAKI-1, 48 h
U-251 [1] = assay: Growth inhibition of human U251 cells assessed as cell growth at 10 uM after 48 hrs by sulforhodamine B assay; format: functional; conditions: U-251, 48 h, read-out: Activity
OVCAR-4 = assay: Growth inhibition of human OVCAR4 cells after 48 hrs by sulforhodamine B assay; format: functional; conditions: OVCAR-4, 48 h
HOP-62 [2] = assay: Growth inhibition of human HOP62 cells assessed as cell growth at 10 uM after 48 hrs by sulforhodamine B assay; format: functional; conditions: HOP-62, 48 h, read-out: Activity
SF-268 [3] = assay: Growth inhibition of human SF268 cells assessed as cell growth at 10 uM after 48 hrs by sulforhodamine B assay; format: functional; conditions: SF-268, 48 h, read-out: Activity
OVCAR-3 = assay: Growth inhibition of human OVCAR3 cells assessed as cell growth at 10 uM after 48 hrs by sulforhodamine B assay; format: functional; conditions: OVCAR-3, 48 h, read-out: Activity
SK-OV-3 = assay: Growth inhibition of human SKOV3 cells assessed as cell growth at 10 uM after 48 hrs by sulforhodamine B assay; format: functional; conditions: SK-OV-3, 48 h, read-out: Activity
HL-60(TB) = assay: Growth inhibition of human HL-60(TB) cells assessed as cell growth at 10 uM after 48 hrs by sulforhodamine B assay; format: functional; conditions: HL-60, 48 h, read-out: Activity
U-251 [4] = assay: Growth inhibition of human U251 cells after 48 hrs by sulforhodamine B assay; format: functional; conditions: U-251, 48 h
SF-268 [5] = assay: Growth inhibition of human SF268 cells after 48 hrs by sulforhodamine B assay; format: functional; conditions: SF-268, 48 h
OVCAR-8 [6] = assay: Growth inhibition of human OVCAR8 cells assessed as cell growth at 10 uM after 48 hrs by sulforhodamine B assay; format: functional; conditions: OVCAR-8, 48 h, read-out: Activity
NCI-H23 = assay: Growth inhibition of human NCI-H23 cells after 48 hrs by sulforhodamine B assay; format: functional; conditions: NCI-H23, 48 h
[7] = Growth inhibition of human Hs 578T cells assessed as cell growth at 10 uM after 48 hrs by sulforhodamine B assay; format: functional; conditions: read-out: Activity
SK-MEL-5 = assay: Growth inhibition of human SK-MEL-5 cells after 48 hrs by sulforhodamine B assay; format: functional; conditions: SK-MEL-5, 48 h
UO-31 [8] = assay: Growth inhibition of human UO31 cells after 48 hrs by sulforhodamine B assay; format: functional; conditions: UO-31, 48 h
HOP-62 [9] = assay: Growth inhibition of human HOP62 cells after 48 hrs by sulforhodamine B assay; format: functional; conditions: HOP-62, 48 h
NCI-H522 = assay: Growth inhibition of human NCI-H522 cells assessed as cell growth at 10 uM after 48 hrs by sulforhodamine B assay; format: functional; conditions: NCI-H522, 48 h, read-out: Activity
[10] = Growth inhibition of human NCI-ADR-RES cells assessed as cell growth at 10 uM after 48 hrs by sulforhodamine B assay; format: functional; conditions: read-out: Activity
NCI-H460 = assay: Growth inhibition of human NCI-H460 cells after 48 hrs by sulforhodamine B assay; format: functional; conditions: NCI-H460, 48 h
CCRF-CEM = assay: Growth inhibition of human CCRF-CEM cells after 48 hrs by sulforhodamine B assay; format: functional
HCT-15 = assay: Growth inhibition of human HCT15 cells after 48 hrs by sulforhodamine B assay; format: functional; conditions: HCT-15, 48 h
OVCAR-5 [11] = assay: Growth inhibition of human OVCAR5 cells after 48 hrs by sulforhodamine B assay; format: functional; conditions: OVCAR-5, 48 h
Malme-3M = assay: Growth inhibition of human MALME-3M cells after 48 hrs by sulforhodamine B assay; format: functional
SR = assay: Growth inhibition of human SR cells after 48 hrs by sulforhodamine B assay; format: functional
PC-3 = assay: Growth inhibition of human PC3 cells assessed as cell growth at 10 uM after 48 hrs by sulforhodamine B assay; format: functional; conditions: PC-3, 48 h, read-out: Activity
UO-31 [12] = assay: Growth inhibition of human UO31 cells assessed as cell growth at 10 uM after 48 hrs by sulforhodamine B assay; format: functional; conditions: UO-31, 48 h, read-out: Activity
MOLT-4 = assay: Growth inhibition of human MOLT4 cells after 48 hrs by sulforhodamine B assay; format: functional; conditions: MOLT-4, 48 h
[13] = Growth inhibition of human NCI-ADR-RES cells after 48 hrs by sulforhodamine B assay; format: functional
MDA-MB-435 = assay: Growth inhibition of human MDA-MB-435 cells after 48 hrs by sulforhodamine B assay; format: functional, cell-based; conditions: MDA-MB-435, 48 h
OVCAR-8 [14] = assay: Growth inhibition of human OVCAR8 cells after 48 hrs by sulforhodamine B assay; format: functional; conditions: OVCAR-8, 48 h
786-0 = assay: Growth inhibition of human 786-0 cells after 48 hrs by sulforhodamine B assay; format: functional; conditions: 786-0, 48 h
OVCAR-5 [15] = assay: Growth inhibition of human OVCAR5 cells assessed as cell growth at 10 uM after 48 hrs by sulforhodamine B assay; format: functional; conditions: OVCAR-5, 48 h, read-out: Activity
[16] = read-out: LC50 (the source's name)

**Q.** With `O=C(Nc1cccc(-n2cc(-c3ccncc3)c(-c3ccc(Cl)c(O)c3)n2)c1)Nc1ccc(Cl)c(C(F)(F)F)c1` as the molecule, how does the growth at 10 µM (COLO 205) read?
**A.** -60.2%

**Q.** What about the GI50 (M14) of the same molecule?
**A.** 886 nM

**Q.** And the LC50 (concentration killing 50% of cells) (M14)?
**A.** > 32500 nM

**Q.** And the TGI (M14)?
**A.** 2770 nM

**Q.** What about the growth at 10 µM (T47D) of the same molecule?
**A.** -7.12%

**Q.** What about the GI50 (CAKI-1) of the same molecule?
**A.** 795 nM

**Q.** And the TGI (CAKI-1)?
**A.** 2630 nM

**Q.** And the CC50 (CAKI-1; [16])?
**A.** > 32500 nM

**Q.** What about the growth at 10 µM (U-251 [1]) of the same molecule?
**A.** -70.4%

**Q.** What about the GI50 (OVCAR-4) of the same molecule?
**A.** 1200 nM

**Q.** And the LC50 (concentration killing 50% of cells) (OVCAR-4)?
**A.** > 32500 nM

**Q.** And the TGI (OVCAR-4)?
**A.** > 32500 nM

**Q.** What about the growth at 10 µM (HOP-62 [2]) of the same molecule?
**A.** -17%

**Q.** And the growth at 10 µM (SF-268 [3])?
**A.** -34.5%

**Q.** What about the growth at 10 µM (OVCAR-3) of the same molecule?
**A.** -43%

**Q.** What about the growth at 10 µM (SK-OV-3) of the same molecule?
**A.** 7.47%

**Q.** What about the growth at 10 µM (HL-60(TB)) of the same molecule?
**A.** -11.2%

**Q.** And the GI50 (U-251 [4])?
**A.** 548 nM

**Q.** And the LC50 (concentration killing 50% of cells) (U-251 [4])?
**A.** 2740 nM

**Q.** What about the TGI (U-251 [4]) of the same molecule?
**A.** 1230 nM

**Q.** And the GI50 (SF-268 [5])?
**A.** 1060 nM

**Q.** What about the TGI (SF-268 [5]) of the same molecule?
**A.** 6980 nM

**Q.** What about the CC50 (SF-268 [5]; [16]) of the same molecule?
**A.** > 32500 nM

**Q.** And the growth at 10 µM (OVCAR-8 [6])?
**A.** -41.8%

**Q.** And the GI50 (NCI-H23)?
**A.** 951 nM

**Q.** And the LC50 (NCI-H23)?
**A.** 26100 nM

**Q.** What about the TGI (NCI-H23) of the same molecule?
**A.** 3330 nM

**Q.** What about the growth at 10 µM [7] of the same molecule?
**A.** -7.39%

**Q.** And the GI50 (SK-MEL-5)?
**A.** 550 nM

**Q.** And the LC50 (concentration killing 50% of cells) (SK-MEL-5)?
**A.** 2130 nM

**Q.** And the TGI (SK-MEL-5)?
**A.** 1080 nM

**Q.** What about the GI50 (UO-31 [8]) of the same molecule?
**A.** 777 nM

**Q.** What about the TGI (UO-31 [8]) of the same molecule?
**A.** 3010 nM

**Q.** And the CC50 (UO-31 [8]; [16])?
**A.** > 32500 nM

**Q.** What about the GI50 (HOP-62 [9]) of the same molecule?
**A.** 1220 nM

**Q.** What about the TGI (HOP-62 [9]) of the same molecule?
**A.** 7830 nM

**Q.** And the CC50 (HOP-62 [9]; [16])?
**A.** > 32500 nM

**Q.** What about the growth at 10 µM (NCI-H522) of the same molecule?
**A.** -30%

**Q.** What about the growth at 10 µM [10] of the same molecule?
**A.** -16.9%

**Q.** What about the GI50 (NCI-H460) of the same molecule?
**A.** 1010 nM

**Q.** And the LC50 (NCI-H460)?
**A.** > 32500 nM

**Q.** What about the TGI (NCI-H460) of the same molecule?
**A.** 4000 nM

**Q.** And the GI50 (CCRF-CEM)?
**A.** 719 nM

**Q.** And the LC50 (CCRF-CEM)?
**A.** > 32500 nM

**Q.** What about the TGI (CCRF-CEM) of the same molecule?
**A.** 2700 nM

**Q.** What about the GI50 (HCT-15) of the same molecule?
**A.** 867 nM

**Q.** What about the LC50 (HCT-15) of the same molecule?
**A.** > 32500 nM

**Q.** And the TGI (HCT-15)?
**A.** 13800 nM

**Q.** What about the GI50 (OVCAR-5 [11]) of the same molecule?
**A.** 1570 nM

**Q.** What about the LC50 (concentration killing 50% of cells) (OVCAR-5 [11]) of the same molecule?
**A.** > 32500 nM

**Q.** What about the TGI (OVCAR-5 [11]) of the same molecule?
**A.** 16200 nM

**Q.** And the GI50 (Malme-3M)?
**A.** 576 nM

**Q.** And the LC50 (concentration killing 50% of starting cells) (Malme-3M)?
**A.** 9580 nM

**Q.** And the TGI (Malme-3M)?
**A.** 1650 nM

**Q.** What about the GI50 (SR) of the same molecule?
**A.** 715 nM

**Q.** What about the TGI (SR) of the same molecule?
**A.** 2520 nM

**Q.** And the CC50 (SR; [16])?
**A.** > 32500 nM

**Q.** What about the growth at 10 µM (PC-3) of the same molecule?
**A.** -10.4%

**Q.** And the growth at 10 µM (UO-31 [12])?
**A.** -6.09%

**Q.** And the GI50 (MOLT-4)?
**A.** 777 nM

**Q.** What about the TGI (MOLT-4) of the same molecule?
**A.** 2930 nM

**Q.** And the CC50 (MOLT-4; [16])?
**A.** > 32500 nM

**Q.** What about the GI50 [13] of the same molecule?
**A.** 844 nM

**Q.** And the TGI [13]?
**A.** 2750 nM

**Q.** What about the CC50 [13, 16] of the same molecule?
**A.** > 32500 nM

**Q.** What about the GI50 (MDA-MB-435) of the same molecule?
**A.** 660 nM

**Q.** What about the IC50 (MDA-MB-435) of the same molecule?
**A.** 660 nM

**Q.** What about the TGI (MDA-MB-435) of the same molecule?
**A.** 1770 nM

**Q.** And the CC50 (MDA-MB-435; [16])?
**A.** 21500 nM

**Q.** And the GI50 (OVCAR-8 [14])?
**A.** 759 nM

**Q.** And the TGI (OVCAR-8 [14])?
**A.** 2280 nM

**Q.** And the CC50 (OVCAR-8 [14]; [16])?
**A.** > 32500 nM

**Q.** And the GI50 (786-0)?
**A.** 1280 nM

**Q.** And the TGI (786-0)?
**A.** > 32500 nM

**Q.** And the CC50 (786-0; [16])?
**A.** > 32500 nM

**Q.** What about the growth at 10 µM (OVCAR-5 [15]) of the same molecule?
**A.** 23.3%
